US12320799B2, “Methods of measuring signaling pathway activity for selection of therapeutic agents” (Celcuity Inc., priority 2017, dated 2025)

Experiments:
Assay type in all cases: cell-based, human
[1] = tested on: FLT3 signaling pathway; test: CELx multiple pathway test, impedance biosensor cell adhesion, FL/Gilteritnib pair; conditions: activator FL
Text: Biosensor and transducer: A 96-well impendence E-Plate (ACEA, San Diego, CA) was placed onto an xCELLigence RTCA MP Station impendence biosensor (ACEA, San Diego, CA). The biosensor measured simultaneously the impedance of every well. The change in impedance for a particular well is proportional to the number of cells and type of attachment the cells have with the impedance microplate. Changes in impedance indicate a response to perturbation of these small cell populations. Coatings: The 96-E-Plate were wells were coated with fibronectin and or collagen. Collagen is purchased from Advanced BioMatrix (Carlsbad, CA) and fibronectin from Sigma-Aldrich (St. Louis, MO). Tissue and cell samples: A total of 18 samples of human tumor cells from breast, lung, colon, ovarian, kidney, bladder cancer were studied. For each of these six different cancer types, tumor cell samples from three different patients were tested. Any biomarkers that are used to guide selection of targeted therapy are listed in Table 18 for each patient if they were present. Signaling Pathways activator agent and targeted therapeutic pairs: Eleven different signaling pathways were studied in each human tumor cell sample using […] signaling pathway activator agent and targeted therapeutic pairs. Each of the signaling pathway activator agent and targeted therapeutic pairs affect the same signaling pathway. Each of the signaling pathway activator agents is a well-characterized and specific agonist of its associated signaling pathway and each of the targeted therapeutic agents is a well-characterized and specific antagonist of the same associated signaling pathway. The signaling pathway activator agents and targeted therapeutics used to characterize the activity level of the associated signaling pathway are summarized in Table 16 below:
Other Reagents: Standard media antibiotics (e.g. penicillin, streptomycin) and other buffers were purchased and used as delivered from ATCC (Manassas, VA, USA) or Life Technologies (Grand Island, NY). Procedure: For each test of a patient cell sample with a pair of signaling pathway activator and targeted therapeutic agents, six wells were seeded with approximately 15,000 cells in 120 uL culture media. Twenty microliters of the targeted therapeutic agent were added to two wells of each patient's cells and 20 microliters of standard media were added to the other four wells for each patient 18 hours in advance of addition of the signaling pathway activator agent. Signaling pathway stimulation was initiated with the addition of 20 ul of the signaling pathway activator agent in the two wells that received a targeted therapeutic agent and in two additional wells for each patient's set of cells without the targeted therapeutic. The impedance recording of attachment and adhesion change was performed at 37° C., 5% C02. Data was recorded on a continuous basis throughout the test, where the data presented is from the initial baseline level of cell attachment compared to the subsequent effects following the targeted therapeutic agent and the signaling pathway activator agent additions on the 18 different patient samples.
For each of the 18 patient samples, up to 11 different signaling pathways were tested. The output value represents the difference between the amount of cell adhesion change resulting from addition of the signaling pathway activator agent and the amount of cell adhesion change resulting from addition of the targeted therapeutic agent.

[2] = tested on: c-Met signaling; test: CELx ex vivo test of C21 sample agonized only by HGF; conditions: C21 cell sample agonized only by HGF
Procedure: (§1) A HER2+ tumor cell sample, C21, was tested using essentially the same methods described in Examples 1 and 3 above to evaluate the status of the c-Met, EGFR, HER2 and HER3 pathways. […] Thus, this cell sample was suitable to assess whether cells found to be responsive to c-Met and EGFR inhibitors ex vivo in the CELx test would respond to these same inhibitors when another portion of the same cell sample was implanted in a xenograft mouse model.
(§2) This finding is not related to the receptor or gene amplification status of either receptor, nor observable when signaling activity is measured in isolation. This highlights the advantages of evaluating multiple signaling pathways simultaneously in live cells.

[3] = tested on: HER family signaling pathways and the c-Met signaling pathway; test: CELx ex vivo test of C21 sample simultaneously agonized with NRG1, EGF and HGF; conditions: C21 cell sample simultaneously agonized with NRG1, EGF and HGF
Procedure: as §1, §2

| SMILES | output value ([1]; C2 breast tumor cells) | output value ([1]; C21 breast tumor cells) | output value ([1]; C34 breast tumor cells) | output value ([1]; C54 ovarian tumor cells) | output value ([1]; C77 ovarian tumor cells) | percentage of c-Met signaling activity inhibited [2] | total signaling inhibited [3] |
| --- | --- | --- | --- | --- | --- | --- | --- |
| CCc1nc(C(N)=O)c(Nc2ccc(N3CCC(N4CCN(C)CC4)CC3)c(OC)c2)nc1NC1CCOCC1 [Gilteritnib] | 7 | 9 | 10 | 10 | 6 | – | – |
| CN1CCC(COc2cnc(-c3cccc(Cn4nc(-c5cccc(C#N)c5)ccc4=O)c3)nc2)CC1 [tepotinib] | – | – | – | – | – | ~100% | less than 10% |
